Measurements from ChEMBL document CHEMBL3885861, “Open TG-GATES”.

Organism: Rattus norvegicus
Assay: Open TG-GATES - Regimen: Single
Type: toxicity, organism-based, Sprague-Dawley
Parameters: regimen Single, gender Male, age 6 weeks
Conditions: in vivo, sc, 0.02 mg/kg, route subcutaneous injection, dose 20 ug/Kg, dose level Low; for APTT / Bas / Eos / Fbg / Hb / Ht / Lym / MCH / MCHC / MCV / Mono / Neu / PT / Plat / RBC / Ret / WBC: tissue Blood; for KIDNEY_L / KIDNEY_R / KIDNEY_TOTAL: tissue Kidney; for LIVER: tissue Liver; for A/G / ALP / ALT / AST / BUN / CRE / Ca / Cl / DBIL / GLC / IP / K / LDH / Na / PL / RALB / TBIL / TC / TG / TP / gamma-GTP: tissue Plasma

For CC(=O)O.N=C(N)NCCC[C@@H](NC(=O)[C@@H]1CCCN1C(=O)[C@@H]1CSSCCC(=O)N[C@@H](Cc2ccc(O)cc2)C(=O)N[C@@H](Cc2ccccc2)C(=O)N[C@@H](CCC(N)=O)C(=O)N[C@@H](CC(N)=O)C(=O)N1)C(=O)NCC(N)=O [DESMOPRESSIN ACETATE], the TERMINAL_BW (3 h) was 210.4 g, the APTT (3 h) was 17.8 s and the Bas (3 h) was 0%. It also gave an Eos (3 h) of 1%, a Fbg (3 h) of 236 mg/dL and a Hb (3 h) of 12.9 g/dL. For the same molecule, the Ht (3 h) was 39.5%, the Lym (3 h) was 71.4% and the MCH (3 h) was 22.1 pg. The MCHC (3 h) was 32.7%, the MCV (3 h) was 67.5 fL and the Mono (3 h) was 8.6%. It also gave a Neu (3 h) of 18.6%, a PT (3 h) of 12.3 s and a Plat (3 h) of 120.4 x10_4/uL. It also gave an RBC (3 h) of 586 x10_4/ul, a Ret (3 h) of 9.1% and a WBC (3 h) of 90.2 x10_2/uL. For the same molecule, the KIDNEY_L (3 h) was 1 g, the KIDNEY_R (3 h) was 1 g and the KIDNEY_TOTAL (3 h) was 1.9 g. For the same molecule, the LIVER (3 h) was 10 g, the A/G (3 h) was 2 and the ALP (3 h) was 1379 IU/L. For the same molecule, the ALT (3 h) was 39.2 IU/L, the AST (3 h) was 68.8 IU/L and the BUN (3 h) was 21.2 mg/dL. It also gave a CRE (3 h) of 0.3 mg/dL, a Ca (3 h) of 11.1 mg/dL and a Cl (3 h) of 102.8 meq/L. The DBIL (3 h) was 0.01 mg/dL, the GLC (3 h) was 194.4 mg/dL and the IP (3 h) was 9.9 mg/dL. The K (3 h) was 4.5 meq/L, the LDH (3 h) was 123.8 IU/L and the Na (3 h) was 135.4 meq/L. The PL (3 h) was 142 mg/dL, the RALB (3 h) was 3.6 g/dL and the TBIL (3 h) was 0.05 mg/dL. For the same molecule, the TC (3 h) was 81.8 mg/dL, the TG (3 h) was 64.4 mg/dL and the TP (3 h) was 5.4 g/dL. It also gave a gamma-GTP (3 h) of 1 IU/L, a TERMINAL_BW (6 h) of 202.1 g and an APTT (6 h) of 17.3 s. For the same molecule, the Bas (6 h) was 0%, the Eos (6 h) was 1% and the Fbg (6 h) was 232.8 mg/dL. The Hb (6 h) was 12.9 g/dL, the Ht (6 h) was 39.6% and the Lym (6 h) was 77.8%. The MCH (6 h) was 21.5 pg, the MCHC (6 h) was 32.6% and the MCV (6 h) was 66.1 fL. It also gave a Mono (6 h) of 8%, a Neu (6 h) of 13.2% and a PT (6 h) of 12.7 s. It also gave a Plat (6 h) of 116.8 x10_4/uL, an RBC (6 h) of 598.6 x10_4/ul and a Ret (6 h) of 9.1%. The WBC (6 h) was 105.6 x10_2/uL, the KIDNEY_L (6 h) was 1 g and the KIDNEY_R (6 h) was 1 g. It also gave a KIDNEY_TOTAL (6 h) of 2 g, an LIVER (6 h) of 9.1 g and an A/G (6 h) of 1.9. The ALP (6 h) was 1160 IU/L, the ALT (6 h) was 31.2 IU/L and the AST (6 h) was 60 IU/L. The BUN (6 h) was 25.4 mg/dL, the CRE (6 h) was 0.3 mg/dL and the Ca (6 h) was 10.8 mg/dL. For the same molecule, the Cl (6 h) was 103.6 meq/L, the DBIL (6 h) was 0.014 mg/dL and the GLC (6 h) was 199 mg/dL. It also gave an IP (6 h) of 9.6 mg/dL, a K (6 h) of 4.8 meq/L and an LDH (6 h) of 109.4 IU/L. The Na (6 h) was 135 meq/L, the PL (6 h) was 142.8 mg/dL and the RALB (6 h) was 3.5 g/dL. For the same molecule, the TBIL (6 h) was 0.074 mg/dL, the TC (6 h) was 85 mg/dL and the TG (6 h) was 62.4 mg/dL. For the same molecule, the TP (6 h) was 5.3 g/dL, the gamma-GTP (6 h) was 1 IU/L and the TERMINAL_BW (9 h) was 202.1 g. The APTT (9 h) was 16.9 s, the Bas (9 h) was 0% and the Eos (9 h) was 1.4%. The Fbg (9 h) was 229 mg/dL, the Hb (9 h) was 13 g/dL and the Ht (9 h) was 40.1%. For the same molecule, the Lym (9 h) was 72%, the MCH (9 h) was 21.8 pg and the MCHC (9 h) was 32.6%. The MCV (9 h) was 67.1 fL, the Mono (9 h) was 8.4% and the Neu (9 h) was 18.4%. For the same molecule, the PT (9 h) was 12.8 s, the Plat (9 h) was 118 x10_4/uL and the RBC (9 h) was 598.2 x10_4/ul. The Ret (9 h) was 9.3%, the WBC (9 h) was 94.6 x10_2/uL and the KIDNEY_L (9 h) was 1 g. For the same molecule, the KIDNEY_R (9 h) was 0.9 g, the KIDNEY_TOTAL (9 h) was 1.9 g and the LIVER (9 h) was 8.7 g. It also gave an A/G (9 h) of 2.2, an ALP (9 h) of 1148.8 IU/L and an ALT (9 h) of 32.2 IU/L. It also gave an AST (9 h) of 62.6 IU/L, a BUN (9 h) of 24.4 mg/dL and a CRE (9 h) of 0.3 mg/dL. The Ca (9 h) was 11 mg/dL, the Cl (9 h) was 103.8 meq/L and the DBIL (9 h) was 0.016 mg/dL. The GLC (9 h) was 198.4 mg/dL, the IP (9 h) was 10.6 mg/dL and the K (9 h) was 5.1 meq/L. It also gave an LDH (9 h) of 143.8 IU/L, a Na (9 h) of 136.4 meq/L and a PL (9 h) of 136.6 mg/dL. The RALB (9 h) was 3.6 g/dL, the TBIL (9 h) was 0.056 mg/dL and the TC (9 h) was 78.2 mg/dL. It also gave a TG (9 h) of 47.6 mg/dL, a TP (9 h) of 5.3 g/dL and a gamma-GTP (9 h) of 0.4 IU/L. For the same molecule, the TERMINAL_BW (24 h) was 220.6 g, the APTT (24 h) was 16.9 s and the Bas (24 h) was 0%. For the same molecule, the Eos (24 h) was 1%, the Fbg (24 h) was 245.2 mg/dL and the Hb (24 h) was 12.8 g/dL. The Ht (24 h) was 39.6%, the Lym (24 h) was 74% and the MCH (24 h) was 21.3 pg. For the same molecule, the MCHC (24 h) was 32.4%, the MCV (24 h) was 65.9 fL and the Mono (24 h) was 7.8%. The Neu (24 h) was 17.2%, the PT (24 h) was 12.1 s and the Plat (24 h) was 134.8 x10_4/uL. For the same molecule, the RBC (24 h) was 601 x10_4/ul, the Ret (24 h) was 10.2% and the WBC (24 h) was 109.6 x10_2/uL. For the same molecule, the KIDNEY_L (24 h) was 1 g, the KIDNEY_R (24 h) was 1 g and the KIDNEY_TOTAL (24 h) was 1.9 g. For the same molecule, the LIVER (24 h) was 10.3 g, the A/G (24 h) was 2 and the ALP (24 h) was 1595.4 IU/L. The ALT (24 h) was 35 IU/L, the AST (24 h) was 63.8 IU/L and the BUN (24 h) was 15 mg/dL. It also gave a CRE (24 h) of 0.4 mg/dL, a Ca (24 h) of 11.3 mg/dL and a Cl (24 h) of 104.8 meq/L. For the same molecule, the DBIL (24 h) was 0 mg/dL, the GLC (24 h) was 193.2 mg/dL and the IP (24 h) was 7.8 mg/dL. For the same molecule, the K (24 h) was 5.2 meq/L, the LDH (24 h) was 137 IU/L and the Na (24 h) was 137.8 meq/L. It also gave a PL (24 h) of 152.8 mg/dL, an RALB (24 h) of 3.7 g/dL and a TBIL (24 h) of 0.022 mg/dL. For the same molecule, the TC (24 h) was 83.8 mg/dL, the TG (24 h) was 98.6 mg/dL and the TP (24 h) was 5.5 g/dL. It also gave a gamma-GTP (24 h) of 1.2 IU/L.
